Results reported in PubChem BioAssay AID248 (DTP/NCI, 2004).
“And” between values parts separate entries of the source, which are not always exact repeats. Equal entries are not always repeated. Toxic doses and inconclusive results are not listed. Cut-off read from the data, not from the text of the source: active = T/C of 150% or more; inactive = T/C below 125%.

System: L1210 leukemia ip in BDF1 mice, survival T/C
Test: NCI In Vivo Anticancer Drug Screen. Data for tumor model L1210 Leukemia (intraperitoneal) in B6D2F1 (BDF1) mice
Details: endpoint: mean survival time, higher = longer survival
Summary of the method: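 Ratio derived from survival: compound-dosed mice over vehicle-dosed mice, all bearing a transplantable tumor.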

[1] = dose: 50.0 mg/kg/injection, schedule: Q01DX001 (ip), vehicle: carboxymethylcellulose (CMC)
[2] = dose: 100.0 mg/kg/injection, schedule: Q01DX009 (ip), vehicle: saline
[3] = dose: 100.0 mg/kg/injection, schedule: Q04DX003 (ip), vehicle: saline
[4] = dose: 200.0 mg/kg/injection, schedule: Q04DX003 (ip), vehicle: saline
[5] = dose: 400.0 mg/kg/injection, schedule: Q04DX003 (ip), vehicle: saline
[6] = dose: 100.0 mg/kg/injection, schedule: Q04DX003 (ip), vehicle: saline with Tween-80
[7] = dose: 200.0 mg/kg/injection, schedule: Q04DX003 (ip), vehicle: saline with Tween-80
[8] = dose: 100.0 mg/kg/injection, schedule: Q04DX003 (ip), vehicle: Klucel (hydroxypropylcellulose) (HPC)
[9] = dose: 200.0 mg/kg/injection, schedule: Q04DX003 (ip), vehicle: Klucel (hydroxypropylcellulose) (HPC)
[10] = dose: 400.0 mg/kg/injection, schedule: Q04DX003 (ip), vehicle: Klucel (hydroxypropylcellulose) (HPC)
[11] = dose: 400.0 mg/kg/injection, schedule: Q04DX003 (ip), vehicle: saline with Tween-80
[12] = dose: 25.0 mg/kg/injection, schedule: Q01DX009 (ip), vehicle: saline
[13] = dose: 50.0 mg/kg/injection, schedule: Q01DX009 (ip), vehicle: saline

Measured: T/C

CCCCOCc1c(CO)cnc(C)c1O
inactive: dose: 25.0 mg/kg/injection, schedule: Q04DX002 (ip), vehicle: saline 99 % of control | dose: 50.0 mg/kg/injection, schedule: Q04DX002 (ip), vehicle: saline 96 % of control | dose: 100.0 mg/kg/injection, schedule: Q04DX002 (ip), vehicle: saline 93 % of control and 96 % of control

OCCN(CCO)c1cc(OCc2ccccc2)cc(OCc2ccccc2)c1
inactive: dose: 25.0 mg/kg/injection, schedule: Q01DX009 (ip), vehicle: water 94 % of control | dose: 50.0 mg/kg/injection, schedule: Q01DX009 (ip), vehicle: water 97 % of control | dose: 100.0 mg/kg/injection, schedule: Q01DX009 (ip), vehicle: water 101 % of control | dose: 200.0 mg/kg/injection, schedule: Q01DX009 (ip), vehicle: water 86 % of control | dose: 400.0 mg/kg/injection, schedule: Q01DX009 (ip), vehicle: water 95 % of control

Cc1ccc(NC(=O)OCC2CC3C=CC2C3)cc1 (centres undefined)
inactive: dose: 100.0 mg/kg/injection, schedule: Q01DX009 (ip), vehicle: Klucel (hydroxypropylcellulose) (HPC) 98 % of control | dose: 200.0 mg/kg/injection, schedule: Q01DX009 (ip), vehicle: Klucel (hydroxypropylcellulose) (HPC) 102 % of control | dose: 400.0 mg/kg/injection, schedule: Q01DX009 (ip), vehicle: Klucel (hydroxypropylcellulose) (HPC) 100 % of control

NC(N)=N/N=C(\c1ccc(F)cc1)c1ccc(C(F)(F)F)cc1
inactive: dose: 9.5 mg/kg/injection, schedule: Q01DX001 (ip), vehicle: other 92 % of control | dose: 19.0 mg/kg/injection, schedule: Q01DX001 (ip), vehicle: other 97 % of control | dose: 38.0 mg/kg/injection, schedule: Q01DX001 (ip), vehicle: other 98 % of control

O=C1C(Cl)=C(N2CCOCC2)C(=O)C(Cl)=C1N1CCOCC1
inactive: [1] 94 % of control | dose: 100.0 mg/kg/injection, schedule: Q01DX001 (ip), vehicle: carboxymethylcellulose (CMC) 92 % of control | dose: 200.0 mg/kg/injection, schedule: Q01DX001 (ip), vehicle: carboxymethylcellulose (CMC) 99 % of control | dose: 400.0 mg/kg/injection, schedule: Q01DX001 (ip), vehicle: carboxymethylcellulose (CMC) 97 % of control

CCOC(=O)/C(C)=C\c1c(C)[nH]c(=O)[nH]c1=O
inactive: [2] 87 % of control | [3] 97 % of control | dose: 200.0 mg/kg/injection, schedule: Q01DX009 (ip), vehicle: saline 94 % of control | [4] 94 % of control | dose: 400.0 mg/kg/injection, schedule: Q01DX009 (ip), vehicle: saline 86 % of control | [5] 92 % of control

CCCCCCCC/C=C\CCCCCCCCOC(N)=O
inactive: dose: 50.0 mg/kg/injection, schedule: Q01DX009 (ip), vehicle: other 96 % of control | dose: 100.0 mg/kg/injection, schedule: Q01DX009 (ip), vehicle: other 94 % of control | [6] 100 % of control | dose: 200.0 mg/kg/injection, schedule: Q01DX009 (ip), vehicle: other 89 % of control | [7] 95 % of control

O=C(SCCN1CCCC1)N1c2ccccc2Sc2ccc(Cl)cc21
inactive: dose: 75.0 mg/kg/injection, schedule: Q01DX001 (ip), vehicle: carboxymethylcellulose (CMC) 94 % of control | dose: 150.0 mg/kg/injection, schedule: Q01DX001 (ip), vehicle: carboxymethylcellulose (CMC) 94 % of control

CC(C)(C)N1OC1c1cccc(Cl)c1 (centres undefined)
inactive: dose: 100.0 mg/kg/injection, schedule: Q01DX001 (ip), vehicle: other 95 % of control | [8] 98 % of control | dose: 200.0 mg/kg/injection, schedule: Q01DX001 (ip), vehicle: other 94 % of control | [9] 93 % of control | dose: 400.0 mg/kg/injection, schedule: Q01DX001 (ip), vehicle: other 97 % of control | [10] 101 % of control

CCCCC(NC(=O)CNC(=O)OCc1ccccc1)C(=O)OC (centres undefined)
inactive: [6] 108 % of control | [7] 100 % of control | [11] 93 % of control

O=C/C(Br)=C(\Br)C(=O)O
inactive: dose: 12.5 mg/kg/injection, schedule: Q01DX001 (ip), vehicle: carboxymethylcellulose (CMC) 93 % of control | dose: 12.5 mg/kg/injection, schedule: Q01DX009 (ip), vehicle: carboxymethylcellulose (CMC) 95 % of control | dose: 12.5 mg/kg/injection, schedule: Q04DX002 (ip), vehicle: carboxymethylcellulose (CMC) 97 % of control | dose: 12.5 mg/kg/injection, schedule: Q04DX003 (ip), vehicle: carboxymethylcellulose (CMC) 97 % of control | dose: 25.0 mg/kg/injection, schedule: Q01DX001 (ip), vehicle: carboxymethylcellulose (CMC) 93 % of control | dose: 25.0 mg/kg/injection, schedule: Q01DX009 (ip), vehicle: carboxymethylcellulose (CMC) 98 % of control and 92 % of control | dose: 25.0 mg/kg/injection, schedule: Q04DX002 (ip), vehicle: carboxymethylcellulose (CMC) 93 % of control and 98 % of control | dose: 25.0 mg/kg/injection, schedule: Q04DX003 (ip), vehicle: carboxymethylcellulose (CMC) 103 % of control | [1] 106 % of control | dose: 50.0 mg/kg/injection, schedule: Q01DX009 (ip), vehicle: carboxymethylcellulose (CMC) 96 % of control | dose: 50.0 mg/kg/injection, schedule: Q04DX002 (ip), vehicle: carboxymethylcellulose (CMC) 90 % of control

CN(Cc1ccc([N+](=O)[O-])cc1)C(=O)Nc1ccc(S(=O)(=O)F)cc1
inactive: [3] 98 % of control | [4] 101 % of control | [5] 104 % of control

CCCCCCCCCCCCCCCC[N+]1(C)CCN(SN2CC[N+](C)(CCCCCCCCCCCCCCCC)CC2)CC1
inactive: [12] 98 % of control | [13] 105 % of control | [3] 86 % of control

CC[CH2][Sn]([CH2]C)([c]1ccccc1)[c]1ccccc1
inactive: dose: 100.0 mg/kg/injection, schedule: Q01DX001 (ip), vehicle: Klucel (hydroxypropylcellulose) (HPC) 97 % of control | dose: 200.0 mg/kg/injection, schedule: Q01DX001 (ip), vehicle: Klucel (hydroxypropylcellulose) (HPC) 106 % of control | dose: 400.0 mg/kg/injection, schedule: Q01DX001 (ip), vehicle: Klucel (hydroxypropylcellulose) (HPC) 101 % of control

O=C(CC1(O)C(=O)Nc2ccc(Br)cc21)c1ccc2c(c1)OCO2 (centres undefined)
inactive: dose: 100.0 mg/kg/injection, schedule: Q04DX002 (ip), vehicle: Klucel (hydroxypropylcellulose) (HPC) 92 % of control | dose: 200.0 mg/kg/injection, schedule: Q04DX002 (ip), vehicle: Klucel (hydroxypropylcellulose) (HPC) 104 % of control | dose: 400.0 mg/kg/injection, schedule: Q04DX002 (ip), vehicle: Klucel (hydroxypropylcellulose) (HPC) 95 % of control

CC(=O)C1CCCC23CC(CC12)C(C)(C)C3Br (centres undefined)
inactive: [8] 100 % of control | [9] 103 % of control | [10] 97 % of control

C/C(=N\[N+](C)(C)C)c1cccc(C)n1
inactive: [12] 97 % of control | dose: 25.0 mg/kg/injection, schedule: Q04DX003 (ip), vehicle: saline 107 % of control | [13] 105 % of control | dose: 50.0 mg/kg/injection, schedule: Q04DX003 (ip), vehicle: saline 102 % of control | dose: 100.0 mg/kg/injection, schedule: Q01DX001 (ip), vehicle: saline 103 % of control | [2] 100 % of control | [3] 100 % of control

COc1ccc(C(=O)Nc2ccc(Br)cc2)cc1
inactive: [6] 97 % of control | [7] 95 % of control | [11] 105 % of control

C=C(C)C1(CCC(C)C)C(=O)NC(=O)NC1=O
inactive: dose: 75.0 mg/kg/injection, schedule: Q01DX001 (ip), vehicle: saline 109 % of control | dose: 150.0 mg/kg/injection, schedule: Q01DX001 (ip), vehicle: saline 104 % of control | dose: 300.0 mg/kg/injection, schedule: Q01DX001 (ip), vehicle: saline 105 % of control

COc1cc([N+](=O)[O-])c(Cl)cc1NS(=O)(=O)c1ccccc1
inactive: dose: 100.0 mg/kg/injection, schedule: Q01DX009 (ip), vehicle: saline with Tween-80 100 % of control | [6] 97 % of control | dose: 133.0 mg/kg/injection, schedule: Q04DX003 (ip), vehicle: saline with Tween-80 95 % of control and 89 % of control | dose: 200.0 mg/kg/injection, schedule: Q01DX009 (ip), vehicle: saline with Tween-80 103 % of control | dose: 300.0 mg/kg/injection, schedule: Q04DX003 (ip), vehicle: saline with Tween-80 95 % of control and 92 % of control | dose: 400.0 mg/kg/injection, schedule: Q01DX009 (ip), vehicle: saline with Tween-80 89 % of control | [11] 95 % of control

Cc1ccc(NS(=O)(=O)c2ccc([N+](=O)[O-])cc2)cc1
inactive: [6] 103 % of control | [7] 89 % of control | [11] 89 % of control
